Experimental data taken from patent US8293895B2, “Carbapenem derivatives” (KBP Biosciences Co., Ltd., priority 2007, dated 2012).
Values after ≈ are worked out from the molar mass of the structure shown.

Experiments:
proteus mirabilis = experiment: In vitro antimicrobial activity, agar dilution method; type: cell-based; details: proteus mirabilis clinical isolates
[1] = system: methicillin-resistant Staphylococcus aureus (MRSA); experiment: as above; type: cell-based; details: MRSA clinical isolates
Source text: (§1) Bacterial strains for test: All the bacterial strains are obtained from clinic/hospital and purchased from public organizations. (1) Gram-positive bacteria: methicillin-sensitive Staphylococcus aureus (MSSA), methicillin-resistant Staphylococcus aureus (MRSA), methicillin-resistant Staphylococcus epidermidis (MRSE), methicillin-sensitive Staphylococcus epidermidis (MSSE), penicillin-sensitive Streptococcus pneumoniae (PSSP), penicillin-resistant Streptococcus pneumoniae (PRSP); (2) Gram-negative bacteria: Escherichia coli (products from ESBLs), Klebsiella pneumonia, Pseudomonas aeruginosa. Drugs to be tested: Compound A-E, self-made as described above; Control drugs: Meropenem (Meropenem for injection), Ertapenem (Ertapenem for injection), commercially available. Experimental Method: the agar dilution method, by reference to Methodology of Pharmacological Experiment (XU Shuyun et al, published by the Peoples Medical Publishing House, 1st Edition, August, 1982; 3rd Edition, 5th printing, January 2002, p 1659-1660).

[2] = system: methicillin-sensitive Staphylococcus epidermidis (MSSE); experiment: as above; type: cell-based; details: MSSE clinical isolates
Source text: as §1

[3] = system: methicillin-resistant Staphylococcus epidermidis (MRSE); experiment: as above; type: cell-based; details: MRSE clinical isolates
Source text: as §1

[4] = system: methicillin-sensitive Staphylococcus aureus (MSSA); experiment: as above; type: cell-based; details: MSSA clinical isolates
Source text: as §1

klebsiella pneumonia = experiment: as above; type: cell-based; details: Klebsiella pneumoniae, klebsiella pneumonia clinical isolates
Source text: as §1

pseudomonas aeruginosa = experiment: as above; type: cell-based; details: pseudomonas aeruginosa clinical isolates
Source text: as §1

[5] = system: penicillin-resistant Streptococcus pneumoniae (PRSP); experiment: as above; type: cell-based; details: PRSP clinical isolates
Source text: as §1

[6] = system: penicillin-sensitive Streptococcus pneumoniae (PSSP); experiment: as above; type: cell-based; details: PSSP clinical isolates
Source text: as §1

serratia marcescens = experiment: as above; type: cell-based; details: serratia marcescens clinical isolates
[7] = In vivo pharmacokinetics of SD rat
Method: Drugs to be Tested and Preparation Thereof
Drugs to be tested: partial compounds of the present invention, self-synthesized as described above.
Control drugs: Ertapenem (Ertapenem for Injection), commercially available.
Internal standard substance: Warfarin, white powder, purity: 99%, batchnumber: 0072-8501, provided by Shanghai Institute for Drug Control.
Drug formulation: being dissolved in physiological saline to make the final concentration to be 5 mg/mL for intravenous injection and formulated before administration.
Test animal: SD male rats, weight: 200˜250 g, purchased from SHANGHAI SLAC LABORATORY ANIMAL CO. LTD.
Administration of the drugs to be tested: The SD male rats were randomly divided into five groups, 3 in each group, administrated by intravenous injection in an amount of 10 mg/kg; and weighted before administration.
Collection of Samples: Zero time was marked before administration; 0.5 mL of blood was respectively sampled from orbit venous plexus at 5 min, 15 min, 30 min, 45 min, 1 h, 2 h, 4 h, 6 h, 8 h, 24 h after administration into heparinized centrifuge tubes. The samples were centrifuged for 6 minutes at 8000 rpm and the supernatant plasma was separated. The plasma was freezed at −20° C. for LC-MS/MS analysis. Establishing liquid chromatography-mass spectrometry (LC-MS) methodology: Chromatographic conditions: chromatographic column. Gemini C6-Phenyl (50 mm×4.6 mm, 5 μm), mobile phase: 0.1% of formic acid-water-acetonitrile (5:35:60, v/v/v); flow rate: 1 mL/min; column temperature: 35-40° C., injection volume: 5 μL; split ratio: 1/5. Mass spectrometer conditions: scanning pattern: cation multiple reactions monitoring (MRM); ion source: electrospray ionization (ESI); Nebulize gas: 8 L/min; Curtain gas: 8 L/min; Collision gas: 4 L/min; Ionspray voltage: 4500 v; Temperature: 400° C./500° C. Preparation of the Standard Curve and Quality-Control Sample: a Suitable Amount of the drug to be tested was weighted precisely and then formulated into a stock solution (2.6 mg/mL) with ultrapure water. The stock solution was diluted with methanol to obtain a series of working solutions in a concentration of 25000, 5000, 2500, 500, 250 and 50 ng/mL respectively. 100 μL of plasma samples were respectively added into 20 μL of said working solutions to obtain the calibrated solutions in a concentration of […]. By the same method, the quality-controlled sample solutions in a concentration of 4000, 800 and 20 ng/mL can be prepared. A standard curve was obtained by chromatographic analysis of the sample. Methods for handling of sample: 20 μL of acetonitrile and 200 μL (200 ng/mL) Warfarin in acetonitrile were added into 100 μL of plasma sample, then spun for 1 minute and centrifuged for 5 minutes at 15000 rpm. 100 μL of the supernatant was taken, where 3 μL was used for the LC/MS/MS analysis. Results and Discussions: Concentration to be administered: The formulated drugs were determined using HPLC, and compared with the standard to obtain that the accuracy of the concentration of the drug solution administered by intravenous injection was 103.2%. Data analysis: The drug concentration in plasma would be considered as zero if under detectable limit (10 ng/mL). The pharmacokinetics parameters were calculated by the non-compartment model using Winnonlin Professional 5.2 pharmacokinetics software. Pharmacokinetics: The pharmacokinetics parameters and drug-time curve were obtained by measuring the plasma drug concentration at different time points. The half lives (t1/2) of the tested compounds were summarized in Table 3, wherein the half lives of the compounds of the present invention in rats (intravenous injection) were longer than those of Meropenem and Ertapenem.

[8] = SD male rats, intravenous injection 10 mg/kg, plasma, X ± SD

Structure (SMILES)	MIC90 (proteus mirabilis)	MIC90 [1]	MIC90 [2]	MIC90 [3]	MIC90 [4]	MIC90 (klebsiella pneumonia)	MIC90 (pseudomonas aeruginosa)	MIC90 [5]	MIC90 [6]	MIC90 (serratia marcescens)	Half lives t1/2 [7, 8]	Half lives t1/2 ([7]; rat, in vivo, iv, 10 mg/kg)
C[C@@H](O)[C@H]1C(=O)N2C(C(=O)O)=C(S[C@@H]3CN[C@H](C(=O)NCc4ccc(C(=O)O)o4)C3)[C@H](C)[C@H]12 [Compound B, (4R,5S,6S)-3-[(2S,4S)-2-formyl[[furan-2-carboxy-5-ylmethyl]amino]-pyrrolidine-4-yl]thio-6-[(1R)-1-hydroxyethyl]-4-methyl-7-oxo-1-aza-bicyclo[3.2.0]hept-2-ene-2-carboxylic acid]	0.063 µg/mL (≈ 0.131 µM)	64 µg/mL (≈ 133 µM)	0.25 µg/mL (≈ 0.521 µM)	2 µg/mL (≈ 4.17 µM)	0.25 µg/mL (≈ 0.521 µM)	0.5 µg/mL (≈ 1.04 µM)	32 µg/mL (≈ 66.7 µM)	1 µg/mL (≈ 2.09 µM)	0.008 µg/mL (≈ 0.0167 µM)	0.063 µg/mL (≈ 0.131 µM)	43.2 ± 1.8 min	–
C[C@@H](O)[C@H]1C(=O)N2C(C(=O)O)=C(S[C@@H]3CN[C@H](C(=O)NCc4ccc(CC(=O)O)o4)C3)[C@H](C)[C@H]12 [Compound C, (4R,5S,6S)-3-[(2S,4S)-2-formyl[[furan-2-carboxymethyl-5-ylmethyl]amino]pyrrolidine-4-yl]thio-6-[(1R)-1-hydroxyethyl]-4-methyl-7-oxo-1-aza-bicyclo[3.2.0]hept-2-ene-2-carboxylic acid]	0.063 µg/mL (≈ 0.128 µM)	64 µg/mL (≈ 130 µM)	0.25 µg/mL (≈ 0.507 µM)	1 µg/mL (≈ 2.03 µM)	0.25 µg/mL (≈ 0.507 µM)	0.5 µg/mL (≈ 1.01 µM)	32 µg/mL (≈ 64.8 µM)	0.5 µg/mL (≈ 1.01 µM)	0.016 µg/mL (≈ 0.0324 µM)	0.063 µg/mL (≈ 0.128 µM)	46.8 ± 1.8 min	–
C[C@@H](O)[C@H]1C(=O)N2C(C(=O)O)=C(S[C@@H]3CN[C@H](C(=O)Nc4cccc(C(=O)O)c4)C3)[C@H](C)[C@H]12 [Ertapenem, reference compound]	0.063 µg/mL (≈ 0.132 µM)	> 64 µg/mL	0.25 µg/mL (≈ 0.526 µM)	2 µg/mL (≈ 4.21 µM)	0.5 µg/mL (≈ 1.05 µM)	1 µg/mL (≈ 2.1 µM)	> 64 µg/mL	2 µg/mL (≈ 4.21 µM)	0.016 µg/mL (≈ 0.0336 µM)	0.125 µg/mL (≈ 0.263 µM)	–	36 ± 1.8 min
C[C@@H](O)[C@H]1C(=O)N2C(C(=O)O)=C(S[C@@H]3CN[C@H](C(=O)NCc4ccco4)C3)[C@H](C)[C@H]12 [Compound A, (4R,5S,6S)-3-[(2S,4S)-2-formyl[[furan-2-ylmethyl]amino]pyrrolidine-4-yl]thio-6-[(1R)-1-hydroxyethyl]-4-methyl-7-oxo-1-aza-bicyclo[3.2.0] hept-2-ene-2-carboxylic acid]	0.063 µg/mL (≈ 0.145 µM)	32 µg/mL (≈ 73.5 µM)	0.125 µg/mL (≈ 0.287 µM)	1 µg/mL (≈ 2.3 µM)	0.125 µg/mL (≈ 0.287 µM)	0.125 µg/mL (≈ 0.287 µM)	64 µg/mL (≈ 147 µM)	0.5 µg/mL (≈ 1.15 µM)	0.008 µg/mL (≈ 0.0184 µM)	0.063 µg/mL (≈ 0.145 µM)	21 ± 2.4 min	–
C[C@@H](O)[C@H]1C(=O)N2C(C(=O)O)=C(S[C@@H]3CN[C@H](C(=O)NCc4cc(C(=O)O)co4)C3)[C@H](C)[C@H]12 [Compound D, (4R,5S,6S)-3-[(2S,4S)-2-formyl[[furan-3-carboxy-5-ylmethyl]amino]-pyrrolidine-4-yl]-thio-6-[(1R)-1-hydroxyethyl]-4-methyl-7-oxo-1-aza-bicyclo[3.2.0]hept-2-ene-2-carboxylic acid]	0.063 µg/mL (≈ 0.131 µM)	32 µg/mL (≈ 66.7 µM)	0.125 µg/mL (≈ 0.261 µM)	2 µg/mL (≈ 4.17 µM)	0.25 µg/mL (≈ 0.521 µM)	0.125 µg/mL (≈ 0.261 µM)	64 µg/mL (≈ 133 µM)	1 µg/mL (≈ 2.09 µM)	0.008 µg/mL (≈ 0.0167 µM)	0.063 µg/mL (≈ 0.131 µM)	19.8 ± 1.2 min	–
C[C@@H](O)[C@H]1C(=O)N2C(C(=O)O)=C(S[C@@H]3CN[C@H](C(=O)N(C)C)C3)[C@H](C)[C@H]12 [Meropenem, reference compound]	0.063 µg/mL (≈ 0.164 µM)	64 µg/mL (≈ 167 µM)	0.125 µg/mL (≈ 0.326 µM)	2 µg/mL (≈ 5.22 µM)	0.25 µg/mL (≈ 0.652 µM)	0.5 µg/mL (≈ 1.3 µM)	32 µg/mL (≈ 83.4 µM)	1 µg/mL (≈ 2.61 µM)	0.008 µg/mL (≈ 0.0209 µM)	0.063 µg/mL (≈ 0.164 µM)	6.6 ± 1.2 min	–
C[C@@H](O)[C@H]1C(=O)N2C(C(=O)O)=C(S[C@@H]3CN[C@H](C(=O)NCc4ccc(S(N)(=O)=O)o4)C3)[C@H](C)[C@H]12 [Compound E, (4R,5S,6S)-3-[(2S,4S)-2-formyl[[furan-2-sulphonylamino-5-ylmethyl]amino]-pyrrolidine-4-yl]thio-6-[(1R)-1-hydroxyethyl]-4-methyl-7-oxo-1-aza-bicyclo[3.2.0]hept-2-ene-2-carboxylic acid]	0.063 µg/mL (≈ 0.122 µM)	64 µg/mL (≈ 124 µM)	0.125 µg/mL (≈ 0.243 µM)	2 µg/mL (≈ 3.89 µM)	0.25 µg/mL (≈ 0.486 µM)	0.5 µg/mL (≈ 0.972 µM)	32 µg/mL (≈ 62.2 µM)	2 µg/mL (≈ 3.89 µM)	0.008 µg/mL (≈ 0.0155 µM)	0.063 µg/mL (≈ 0.122 µM)	41.4 ± 2.4 min	–
